Source: ChEMBL document CHEMBL3132785, “Design, synthesis and evaluation of N6-substituted 2-aminoadenosine-5-N-methylcarboxamides as A3 adenosine receptor agonists” (Medchemcomm, 2014)

Legend:
Homo sapiens [1] = organism: Homo sapiens; assay: Selectivity ratio; ratio of pEC50 for human adenosine A2B receptor to pEC50 for human adenosine A3 receptor
Homo sapiens [2] = organism: Homo sapiens; assay: Selectivity ratio; ratio of pEC50 for human adenosine A2A receptor to pEC50 for human adenosine A3 receptor
[3] = target: Adenosine receptors; A1 & A3 (Homo sapiens) (UniProt P30542+P0DMS8); assay: Selectivity ratio; ratio of pEC50 for human adenosine A1 receptor to pEC50 for human adenosine A3 receptor
Adenosine receptor A3 = target: T1, Adenosine receptor A3 (Homo sapiens, UniProt P0DMS8); assay: Agonist activity at human adenosine A3 receptor expressed in FlpIn-CHO cells assessed as inhibition of forskolin-induced cAMP accumulation after 30 mins by fluorescence assay; format: functional, cell-based
T1 sequence (P0DMS8 whole entry): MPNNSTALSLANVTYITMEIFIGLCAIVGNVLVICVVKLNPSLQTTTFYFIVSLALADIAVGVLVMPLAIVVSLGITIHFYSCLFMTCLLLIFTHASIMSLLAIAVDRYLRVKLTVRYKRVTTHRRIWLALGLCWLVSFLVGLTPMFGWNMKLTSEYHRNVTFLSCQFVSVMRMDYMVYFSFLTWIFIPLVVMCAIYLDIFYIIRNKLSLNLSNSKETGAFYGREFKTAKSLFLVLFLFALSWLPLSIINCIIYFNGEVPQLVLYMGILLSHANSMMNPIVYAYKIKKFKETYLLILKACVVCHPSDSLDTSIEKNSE

Adenosine receptor A2b = target: T2, Adenosine receptor A2b (Homo sapiens, UniProt P29275); assay: Agonist activity at human adenosine A2B receptor expressed in FlpIn-CHO cells assessed as inhibition of forskolin-induced cAMP accumulation after 30 mins by fluorescence assay; format: functional, cell-based
T2 sequence (P29275 whole entry): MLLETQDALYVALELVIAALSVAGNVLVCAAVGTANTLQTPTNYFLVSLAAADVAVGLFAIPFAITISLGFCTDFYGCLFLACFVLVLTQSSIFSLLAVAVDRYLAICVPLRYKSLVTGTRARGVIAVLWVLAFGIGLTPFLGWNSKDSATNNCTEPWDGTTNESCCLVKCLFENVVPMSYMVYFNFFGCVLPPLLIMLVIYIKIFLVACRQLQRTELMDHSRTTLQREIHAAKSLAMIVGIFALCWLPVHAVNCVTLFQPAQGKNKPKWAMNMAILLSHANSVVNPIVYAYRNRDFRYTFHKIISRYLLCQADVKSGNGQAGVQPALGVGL

Adenosine receptor A2a = Adenosine receptor A2a (Homo sapiens, UniProt P29274); assay: Agonist activity at human adenosine A2A receptor expressed in FlpIn-CHO cells assessed as inhibition of forskolin-induced cAMP accumulation after 30 mins by fluorescence assay; format: functional, cell-based
Adenosine receptor A2a, sequence (P29274 whole entry): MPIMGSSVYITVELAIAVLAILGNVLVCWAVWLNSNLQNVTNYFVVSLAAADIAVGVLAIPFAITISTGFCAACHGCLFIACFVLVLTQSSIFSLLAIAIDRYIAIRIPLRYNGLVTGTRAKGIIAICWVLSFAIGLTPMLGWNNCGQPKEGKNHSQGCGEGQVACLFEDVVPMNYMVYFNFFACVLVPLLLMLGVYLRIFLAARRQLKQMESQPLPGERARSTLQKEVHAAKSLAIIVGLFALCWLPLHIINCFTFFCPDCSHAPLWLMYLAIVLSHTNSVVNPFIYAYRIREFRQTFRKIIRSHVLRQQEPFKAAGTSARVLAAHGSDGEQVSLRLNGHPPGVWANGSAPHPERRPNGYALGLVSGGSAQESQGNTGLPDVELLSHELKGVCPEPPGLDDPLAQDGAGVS

Adenosine receptor A1 = target: T3, Adenosine receptor A1 (Homo sapiens, UniProt P30542); assay: Agonist activity at human adenosine A1 receptor expressed in FlpIn-CHO cells assessed as inhibition of forskolin-induced cAMP accumulation after 30 mins by fluorescence assay; format: functional, cell-based
T3 sequence (P30542 whole entry): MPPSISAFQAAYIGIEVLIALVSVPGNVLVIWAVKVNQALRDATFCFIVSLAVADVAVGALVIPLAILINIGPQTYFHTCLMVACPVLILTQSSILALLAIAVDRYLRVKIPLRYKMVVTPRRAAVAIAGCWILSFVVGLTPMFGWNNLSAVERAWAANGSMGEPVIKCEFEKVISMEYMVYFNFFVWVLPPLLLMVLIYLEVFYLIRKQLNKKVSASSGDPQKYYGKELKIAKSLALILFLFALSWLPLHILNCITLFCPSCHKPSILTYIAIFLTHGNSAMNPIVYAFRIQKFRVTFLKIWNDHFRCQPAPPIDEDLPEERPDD

Row | SMILES | Selectivity ratio (Homo sapiens [1]) | Selectivity ratio (Homo sapiens [2]) | Selectivity ratio [3] | EC50 (Adenosine receptor A3) | EC50 (Adenosine receptor A2b) | EC50 (Adenosine receptor A2a) | EC50 (Adenosine receptor A1)
1 | CCCNc1nc(N)nc2c1ncn2[C@@H]1O[C@H](C(=O)NC)[C@@H](O)[C@H]1O | 501 | > 1000 | 32 | 10 nM | 5010 nM | > 10000 nM | 316 nM
2 | CNC(=O)[C@H]1O[C@@H](n2cnc3c(NCc4cccc(I)c4)ncnc32)[C@H](O)[C@@H]1O [IB-MECA] |  |  |  |  | 31.6 nM |  | 
3 | CNC(=O)[C@H]1O[C@@H](n2cnc3c(NCCc4ccccc4)nc(N)nc32)[C@H](O)[C@@H]1O | 40 | 20 | 79 | 3.98 nM | 158 nM | 79.4 nM | 316 nM
4 | CNC(=O)[C@H]1O[C@@H](n2cnc3c(NCc4cccc(Cl)c4)nc(N)nc32)[C@H](O)[C@@H]1O | 631 | 631 | 501 | 0.631 nM | 398 nM | 398 nM | 316 nM
5 | CCCCNc1nc(N)nc2c1ncn2[C@@H]1O[C@H](C(=O)NC)[C@@H](O)[C@H]1O | 32 | > 251 | 20 | 39.8 nM | 1260 nM | > 10000 nM | 794 nM
6 | CNC(=O)[C@H]1O[C@@H](n2cnc3c(NCC(c4ccccc4)c4ccccc4)nc(N)nc32)[C@H](O)[C@@H]1O | 40 | 158 | 79 | 5.01 nM | 200 nM | 794 nM | 398 nM
7 | CNC(=O)[C@H]1O[C@@H](n2cnc3c(NCc4cccc(I)c4)nc(N)nc32)[C@H](O)[C@@H]1O | 100 | 158 | 158 | 1.58 nM | 158 nM | 251 nM | 251 nM
8 | CCNc1nc(N)nc2c1ncn2[C@@H]1O[C@H](C(=O)NC)[C@@H](O)[C@H]1O | 158 | > 1000 | 251 | 10 nM | 1580 nM | > 10000 nM | 2510 nM
9 | CNC(=O)[C@H]1O[C@@H](n2cnc3c(NC)nc(N)nc32)[C@H](O)[C@@H]1O | 316 | > 2000 | 794 | 5.01 nM | 1580 nM | > 10000 nM | 3980 nM
10 | CNC(=O)[C@H]1O[C@@H](n2cnc3c(NCc4ccccc4)nc(N)nc32)[C@H](O)[C@@H]1O | 4 | 100 | 200 | 31.6 nM | 126 nM | 3160 nM | 6310 nM

Now from value to compound:

Row | Selectivity ratio (Homo sapiens [1]) | Selectivity ratio (Homo sapiens [2]) | Selectivity ratio [3] | EC50 (Adenosine receptor A3) | EC50 (Adenosine receptor A2b) | EC50 (Adenosine receptor A2a) | EC50 (Adenosine receptor A1) | SMILES
11 | > 251 | 8 | 8 | 39.8 nM | > 10000 nM | 501 nM | 501 nM | CCNc1nc(NC2CCCC2)c2ncn([C@@H]3O[C@H](C(=O)NC)[C@@H](O)[C@H]3O)c2n1
12 | 20 | 6 | 1 | 126 nM | 2510 nM | 794 nM | 63.1 nM | CNC(=O)[C@H]1O[C@@H](n2cnc3c(NC4CCCCC4)nc(N)nc32)[C@H](O)[C@@H]1O
13 | > 16 | 8 | > 16 | 631 nM | > 10000 nM | 5010 nM | > 10000 nM | CNC(=O)[C@H]1O[C@@H](n2cnc3c(NC4CCCC4)nc(N(C)C)nc32)[C@H](O)[C@@H]1O
14 | > 4 | > 4 | > 4 | 2510 nM | > 10000 nM | > 10000 nM | > 10000 nM | CCN(CC)c1nc(NC2CCCC2)c2ncn([C@@H]3O[C@H](C(=O)NC)[C@@H](O)[C@H]3O)c2n1
15 | 40 | 501 | 13 | 5.01 nM | 200 nM | 2510 nM | 63.1 nM | CNC(=O)[C@H]1O[C@@H](n2cnc3c(NC4CCC4)nc(N)nc32)[C@H](O)[C@@H]1O
16 | 50 | 79 | 3 | 15.8 nM | 794 nM | 1260 nM | 39.8 nM | CNC(=O)[C@H]1O[C@@H](n2cnc3c(NC4CCCC4)nc(N)nc32)[C@H](O)[C@@H]1O
17 | > 100 | 40 | 4 | 100 nM | > 10000 nM | 3980 nM | 398 nM | CNC(=O)[C@H]1O[C@@H](n2cnc3c(NC4CCCC4)nc(NC)nc32)[C@H](O)[C@@H]1O
